# Data: patent US10358434B2, “2-(3-pyridinyl)-1H-benzimidazole derivative compound and medicament containing same” (NIHON MEDI-PHYSICS CO., LTD., priority 2014, dated 2019)
# Several values for one entry are separate records, joined by “and”; a condition that tells them apart may be missing. Equal entries are not always repeated.
# Experiments:
# human CYP11B2 = target: T1, human CYP11B2 (Homo sapiens, UniProt P19099); test: Aldosterone production inhibition in V79-B2 cells expressing human CYP11B2 (ELISA); type: cell-based; details: for IC50: V79-B2 cells, corticosterone 100 nmol/L, 4 hours, aldosterone by ELISA, mean or mean ± SD; for Selectivity factor: mean IC50 cortisol production inhibition divided by mean IC50 aldosterone production inhibition
# T1 construct: expressed in transfected cells; host or cells: V79 cells (Chinese hamster lung-derived fibroblasts, from ECACC through DS Pharma Biomedical)
# T1 sequence (P19099 25-503): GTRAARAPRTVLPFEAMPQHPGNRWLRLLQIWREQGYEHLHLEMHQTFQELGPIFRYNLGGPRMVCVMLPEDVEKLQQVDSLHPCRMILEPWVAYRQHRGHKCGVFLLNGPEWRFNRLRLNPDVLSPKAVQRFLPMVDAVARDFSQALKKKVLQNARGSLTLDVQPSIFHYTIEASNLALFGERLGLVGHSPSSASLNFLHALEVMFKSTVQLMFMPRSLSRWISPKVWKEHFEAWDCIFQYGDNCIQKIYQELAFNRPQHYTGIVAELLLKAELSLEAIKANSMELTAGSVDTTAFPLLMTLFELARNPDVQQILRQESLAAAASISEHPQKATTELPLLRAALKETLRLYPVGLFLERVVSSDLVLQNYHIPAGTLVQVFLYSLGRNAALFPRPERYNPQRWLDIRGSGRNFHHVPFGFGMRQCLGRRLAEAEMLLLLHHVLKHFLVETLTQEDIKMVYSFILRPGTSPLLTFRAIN
# Experimental: (§1) This inhibition experiment can be carried out by the following operations. Human CYP11B1 and human CYP11B2 are allowed to individually express in Chinese hamster lung-derived fibroblasts. Subsequently, 11-deoxycortisol is added to the cells expressing human CYP11B1 to a final concentration of 100 nmol/L, and corticosterone is added to the cells expressing human CYP11B2 to a final concentration of 100 nmol/L. At the same time, a target compound used as an analytical sample is added to each of the cells to a final concentration of 10^−4 to 10^4 nmol/L. Thereafter, the concentration of cortisol as a metabolite of CYP11B1 is measured in the cells expressing human CYP11B1 according to ELISA (Enzyme-Linked ImmunoSorbent Assay), and the concentration of aldosterone as a metabolite of CYP11B2 is measured in the cells expressing human CYP11B2 according to ELISA. Provided that the aldosterone concentration and the cortisol concentration without addition of any target compound as a sample are each set at 100%, an inhibition curve is produced, and then inhibitory activity (IC50) is calculated.
# (§2) Chinese hamster lung-derived fibroblasts, V79 cells (acquired from ECACC (European Collection of Cell Cultures) through DS Pharma Biomedical), were allowed to express human CYP11B2, so as to produce V79-B2, and were also allowed to express human CYP11B1, so as to produce V79-B1. V79 cells were cultured in a DMEM medium (containing 4,500 mg/L D-glucose, L-glutamine, and 110 mg/L sodium pyruvate; manufactured by Life Technologies). V79-B2 or V79-B1 was inoculated on a microplate, and then cultured overnight. Thereafter, a mixed solution of corticosterone and a compound as a test target was added into a culture supernatant of V79-B2, and a mixed solution of 11-deoxycortisol and a compound as a test target was added into a culture supernatant of V79-B1. As a solvent for these mixed solutions, the aforementioned DMEM medium further containing 0.1 v/v % dimethyl sulfoxide was used. The concentration of corticosterone or 11-deoxycortisol was adjusted to be 100 nmol/L by addition of the solvent. As test target compounds, (R)-4-iodometomidate (IMTO), and Compounds 100, 200, 300, 400, 500, and 601 to 610 synthesized by methods shown in Examples 1, 3, 5, 6, 8, 10, 12, 14, 16, 18, 20, 22, 24, 26, and 28, respectively, were used. The aforementioned mixed solution was prepared such that the concentration of each compound was 10^−4 to 10^4 nmol/L in the mixed solution. One hour later, the culture supernatant of V79-B1 was recovered, and the concentration of cortisol as a metabolite of CYP11B1 was measured by ELISA (Enzyme-Linked ImmunoSorbent Assay). Moreover, four hours later, the culture supernatant of V79-B2 was recovered, and the concentration of aldosterone as a metabolite of CYP11B2 was measured by ELISA. Provided that the concentration of aldosterone or the concentration of cortisol obtained when none of IMTO and Compounds 100, 200, 300, 400 and 500 was added was defined as 100%, an inhibition curve was produced, and the inhibitory activity (IC50) of each compound was then calculated.
# (§3) In Tables 5 and 6, the term “Selectivity factor” indicates a quotient of the mean value of IC50 for cortisol production inhibition divided by the mean value of IC50 for aldosterone production inhibition. In addition, the symbol “n” indicates the number of tests.
# human CYP11B1 = target: T2, human CYP11B1 (Homo sapiens, UniProt P15538); test: Cortisol production inhibition in V79-B1 cells expressing human CYP11B1 (ELISA); type: cell-based; details: 11-deoxycortisol 100 nmol/L, 1 hour, cortisol by ELISA, mean or mean ± SD
# T2 construct: expressed in transfected cells; host or cells: V79 cells (Chinese hamster lung-derived fibroblasts, from ECACC through DS Pharma Biomedical)
# T2 sequence (P15538 25-503): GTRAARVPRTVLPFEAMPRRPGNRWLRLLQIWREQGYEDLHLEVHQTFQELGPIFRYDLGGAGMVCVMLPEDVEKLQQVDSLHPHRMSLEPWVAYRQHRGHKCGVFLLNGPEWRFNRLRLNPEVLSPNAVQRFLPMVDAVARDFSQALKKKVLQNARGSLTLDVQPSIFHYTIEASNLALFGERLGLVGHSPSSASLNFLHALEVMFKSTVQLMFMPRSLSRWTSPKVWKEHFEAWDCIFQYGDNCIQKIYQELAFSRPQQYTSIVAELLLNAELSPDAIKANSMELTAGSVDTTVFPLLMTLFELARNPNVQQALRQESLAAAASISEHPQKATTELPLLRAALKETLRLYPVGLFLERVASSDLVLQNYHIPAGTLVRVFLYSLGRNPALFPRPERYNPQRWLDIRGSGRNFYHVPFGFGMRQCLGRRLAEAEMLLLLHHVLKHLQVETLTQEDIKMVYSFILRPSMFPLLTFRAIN
# Experimental: as §1, §2, §3
compound,measurement,setting,value
"Fc1cc2nc(-c3cncc(Cn4ccnc4)c3)n(Cc3ccc(I)cc3)c2cc1Cl [Compound 605, 6-Chloro-5-fluoro-1-(4-iodobenzyl)-2-[5-(1H-imidazol-1-ylmethyl)-3-pyridinyl]-1H-benzimidazole]",IC50,human CYP11B2,0.204 µM
same,Selectivity factor,human CYP11B2,1.76
same,IC50,human CYP11B1,0.359 µM
"Cn1c(-c2cncc(Cn3ccnc3)c2)nc2ccc(I)cc21 [Compound 607, 2-[5-{(1H-imidazol-1-yl)methyl}pyridin-3-yl]-6-iodo-1-methyl-1H-benzo[d]imidazole]",IC50,human CYP11B2,0.00093 µM
same,Selectivity factor,human CYP11B2,7.62
same,IC50,human CYP11B1,0.00707 µM
"FCCn1c(-c2cncc(Cn3ccnc3)c2)nc2cc(F)c(Br)cc21 [Compound 200, 6-Bromo-5-fluoro-1-(2-fluoroethyl)-2-[5-(imidazol-1-ylmethyl)pyridin-3-yl]benzimidazole]",IC50,human CYP11B2,0.00747 µM
same,Selectivity factor,human CYP11B2,19.0
same,IC50,human CYP11B1,0.142 µM
"COc1cc(I)cc2c1nc(-c1cncc(Cn3ccnc3)c1)n2C1CC1 [Compound 609, 1-Cyclopropyl-2-[5-(imidazol-1-ylmethyl)pyridin-3-yl]-6-iodo-4-methoxybenzimidazole]",IC50,human CYP11B2,0.00149 µM
same,Selectivity factor,human CYP11B2,10.4
same,IC50,human CYP11B1,0.0155 µM
"CCn1c(-c2cncc(Cn3ccnc3)c2)nc2ccc(I)cc21 [Compound 608, 2-[5-{(1H-imidazol-1-yl)methyl}pyridin-3-yl]-1-ethyl-6-iodo-1H-benzo[d]imidazole]",IC50,human CYP11B2,0.00658 µM
same,Selectivity factor,human CYP11B2,7.93
same,IC50,human CYP11B1,0.0522 µM
"FCCn1c(-c2cncc(Cn3ccnc3)c2)nc2ccc(I)cc21 [Compound 604, 1-(2-Fluoroethyl)-2-[5-{(imidazol-1-yl)methyl}pyridin-3-yl]-6-iodobenzimidazole]",IC50,human CYP11B2,0.00454 µM
same,Selectivity factor,human CYP11B2,11.9
same,IC50,human CYP11B1,0.054 µM
"COC(=O)c1cncn1Cc1cncc(-c2nc3cc(F)c(Br)cc3n2CCO)c1 [Compound 300, 2-{6-Bromo-5-fluoro-2-[5-(5-methylcarboxylateimidazol-1-ylmethyl)pyridin-3-yl]benzimidazol-1-yl}ethanol]",IC50,human CYP11B2,0.0106 µM
same,Selectivity factor,human CYP11B2,1.79
same,IC50,human CYP11B1,0.019 µM
"Ic1ccc2nc(-c3cncc(Cn4ccnc4)c3)n(C3CC3)c2c1 [Compound 602, 1-Cyclopropyl-2-[3-(1H-imidazol-1-ylmethyl)pyridin-5-yl]-6-iodo-1H-benzimidazole]",IC50,human CYP11B2,0.00217 µM
same,Selectivity factor,human CYP11B2,20.5
same,IC50,human CYP11B1,0.0445 µM
"Ic1ccc2nc(-c3cncc(Cn4ccnn4)c3)n(C3CC3)c2c1 [Compound 603, 1-Cyclopropyl-2-[3-(1H-1,2,3-triazol-1-ylmethyl)pyridin-5-yl]-6-iodo-1H-benzimidazole]",IC50,human CYP11B2,0.0181 µM
same,Selectivity factor,human CYP11B2,16.4
same,IC50,human CYP11B1,0.296 µM
Methyl 1-[4-(1-cyclopropyl-6-iodo-1H-imidazobenzo-2-yl)-3-pyridinylmethyl)]-1H-imidazolecarboxylate [Compound 601],IC50,human CYP11B2,0.00309 µM
same,Selectivity factor,human CYP11B2,12.2
same,IC50,human CYP11B1,0.0378 µM
"FCCn1c(-c2cncc(Cn3ccnc3)c2)nc2cc(F)c(Cl)cc21 [Compound 100, 6-Chloro-5-fluoro-1-(2-fluoroethyl)-2-[5-(imidazol-1-ylmethyl)pyridin-3-yl]benzimidazole]",IC50,human CYP11B2,0.0069 ± 0.00287 µM
same,Selectivity factor,human CYP11B2,15.8
same,IC50,human CYP11B1,0.109 ± 0.0158 µM
"FCCCn1c(-c2cncc(Cn3ccnc3)c2)nc2cc(F)c(Cl)cc21 [Compound 500, 6-Chloro-5-fluoro-1-(3-fluoropropyl)-2-[5-(imidazol-1-ylmethyl)pyridin-3-yl]benzimidazole]",IC50,human CYP11B2,0.00394 µM
same,Selectivity factor,human CYP11B2,8.51
same,IC50,human CYP11B1,0.0335 µM
"COC(=O)c1cncn1[C@H](C)c1ccc(I)cc1 [IMTO, (R)-4-iodometomidate, reference compound]",IC50,human CYP11B2,0.00021 µM and 0.00024 µM
same,Selectivity factor,human CYP11B2,1.01 and 1.03
same,IC50,human CYP11B1,0.00022 µM and 0.00025 µM
"FCCn1c(-c2cncc(Cn3cncc3I)c2)nc2cc(F)c(Cl)cc21 [Compound 610, 6-Chloro-5-fluoro-1-(2-fluoroethyl)-2-{5-(5-iodo-1H-imidazol-1-ylmethyl)pyridin-3-yl}benzimidazole]",IC50,human CYP11B2,0.00981 µM
same,Selectivity factor,human CYP11B2,9.27
same,IC50,human CYP11B1,0.091 µM
"CC(C)n1c(-c2cncc(Cn3ccnc3)c2)nc2ccc(I)cc21 [Compound 606, 2-[5-{(1H-imidazol-1-yl)methyl}pyridin-3-yl]-6-iodo-1-isopropyl-1H-benzo[d]imidazole]",IC50,human CYP11B2,0.116 µM
same,Selectivity factor,human CYP11B2,3.17
same,IC50,human CYP11B1,0.368 µM
"FCCn1c(-c2cncc(Cn3ccnc3)c2)nc2cc(F)c(I)cc21 [Compound 400, 5-Fluoro-1-(2-fluoroethyl)-2-[5-(imidazol-1-ylmethyl)pyridin-3-yl]-6-iodobenzimidazole]",IC50,human CYP11B2,0.0445 µM
same,Selectivity factor,human CYP11B2,7.77
same,IC50,human CYP11B1,0.345 µM
